Here are results for 11 compounds from US20250353864A1, “INDAZOLE CONTAINING MACROCYCLES AND THEIR USE” (BLOSSOMHILL THERAPEUTICS, INC., priority 2022, published 2025).

Holding throughout (format): biochemical
One assay has as its target EGFR (D770_N771insNPG) (Homo sapiens (Human), UniProt P00533, INS770NPG). As to the kind of experiment: HotSpot radiometric kinase assay, EGFR (D770_N771insNPG). Particulars: 10 μM ATP, read-out: EGFR (Δ770_N771insNPG) IC50. A digest of the protocol: (§1)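 Radiometric filter-binding assay with EGFR mutant kinase/substrate pairs in 20 mM Hepes pH 7.5 with Mg, EGTA, Brij35, BSA, Na3VO4, DTT, 1% DMSO. Compound preincubated ~20 min, then ATP/^33P-ATP added at 10 μM final. Reaction 120 min at room temperature, spotted on P81 paper; IC50 from curve fits.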

The next assay addresses EGFR Δ746-750 mutant (Homo sapiens (Human), UniProt P00533, DEL746-750). As to the kind of experiment: HotSpot radiometric kinase assay, EGFR Δ746-750 mutant. To be noted: 10 μM ATP. In outline:
as §1

For another assay, the target named is EGFR L858R/T790M mutant (Homo sapiens (Human), UniProt P00533, L858R/T790M). As to the kind of experiment: HotSpot radiometric kinase assay, EGFR L858R/T790M mutant. To be noted: 10 μM ATP. In outline:
as §1

For assay [1], the target named is EGFR L858R/T790M/C797S mutant (Homo sapiens (Human), UniProt P00533, C797S/L858R/T790M). As to the kind of experiment: HotSpot radiometric kinase assay, EGFR L858R/T790M/C797S mutant. Particulars: 10 μM ATP. A digest of the protocol:
as §1

Assay [2] concerns the target EGFR Δ746-750/C797S mutant (Homo sapiens (Human), UniProt P00533, C797S/DEL746-750). As to the kind of experiment: HotSpot radiometric kinase assay, EGFR Δ746-750/C797S mutant. Particulars: 10 μM ATP. A digest of the protocol:
as §1

The next assay concerns the target EGFR WT (Homo sapiens (Human), UniProt P00533). As to the kind of experiment: HotSpot radiometric kinase assay (Reaction Biology), EGFR WT. To be noted: 10 μM ATP. In outline:
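IC50 values come from curve fits of ^33P incorporation captured on P81 filters after acid washing. Kinase reactions ran 120 min at room temperature with 10 μM ATP, added about 20 min after compound. Buffer was Hepes pH 7.5 containing Mg, DTT and 1% DMSO.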

The next assay addresses EGFR L858R mutant (Homo sapiens (Human), UniProt P00533, L858R). The assay can be described thus: HotSpot radiometric kinase assay, EGFR L858R mutant. Particulars: 10 μM ATP. A digest of the protocol:
as §1

The structures appear in SMILES notation.

Sequence of EGFR L858R/T790M mutant (P00533 25-1210 T790M/L858R): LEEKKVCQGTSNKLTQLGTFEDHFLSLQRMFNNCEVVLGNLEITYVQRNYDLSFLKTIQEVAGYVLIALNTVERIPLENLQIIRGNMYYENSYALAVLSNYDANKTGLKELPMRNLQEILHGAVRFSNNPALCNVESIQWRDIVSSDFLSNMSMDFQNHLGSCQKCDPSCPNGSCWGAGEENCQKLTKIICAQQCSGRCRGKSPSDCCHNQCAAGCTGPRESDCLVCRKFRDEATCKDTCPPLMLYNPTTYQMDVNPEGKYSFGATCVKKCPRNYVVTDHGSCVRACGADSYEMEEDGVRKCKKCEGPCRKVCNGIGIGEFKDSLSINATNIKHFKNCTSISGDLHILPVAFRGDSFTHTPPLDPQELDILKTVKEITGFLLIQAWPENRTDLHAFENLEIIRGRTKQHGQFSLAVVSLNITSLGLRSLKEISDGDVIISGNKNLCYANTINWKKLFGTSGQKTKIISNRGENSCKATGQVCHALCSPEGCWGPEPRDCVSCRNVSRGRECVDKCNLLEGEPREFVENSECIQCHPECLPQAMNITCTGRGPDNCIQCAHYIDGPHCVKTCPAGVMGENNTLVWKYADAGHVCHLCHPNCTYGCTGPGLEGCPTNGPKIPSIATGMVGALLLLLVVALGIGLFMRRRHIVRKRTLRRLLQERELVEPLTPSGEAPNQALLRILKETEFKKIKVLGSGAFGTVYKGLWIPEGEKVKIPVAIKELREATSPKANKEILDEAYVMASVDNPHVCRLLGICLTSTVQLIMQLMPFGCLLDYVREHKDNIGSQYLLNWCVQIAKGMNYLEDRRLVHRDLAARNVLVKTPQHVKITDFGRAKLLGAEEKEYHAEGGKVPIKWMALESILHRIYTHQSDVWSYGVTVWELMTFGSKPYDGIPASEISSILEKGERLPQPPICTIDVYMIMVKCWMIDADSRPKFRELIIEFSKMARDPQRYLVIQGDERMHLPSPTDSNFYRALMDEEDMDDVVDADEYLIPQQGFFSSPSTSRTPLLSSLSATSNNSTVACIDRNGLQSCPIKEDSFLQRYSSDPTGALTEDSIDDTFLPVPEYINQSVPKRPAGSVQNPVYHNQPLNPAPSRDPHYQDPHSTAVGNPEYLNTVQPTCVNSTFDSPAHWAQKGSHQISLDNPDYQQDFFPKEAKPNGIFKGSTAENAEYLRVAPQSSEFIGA
Sequence of EGFR Δ746-750/C797S mutant (P00533 other isoform, or with tags, fused parts or gaps C797S/del 1-668/del 746-750 limits assumed): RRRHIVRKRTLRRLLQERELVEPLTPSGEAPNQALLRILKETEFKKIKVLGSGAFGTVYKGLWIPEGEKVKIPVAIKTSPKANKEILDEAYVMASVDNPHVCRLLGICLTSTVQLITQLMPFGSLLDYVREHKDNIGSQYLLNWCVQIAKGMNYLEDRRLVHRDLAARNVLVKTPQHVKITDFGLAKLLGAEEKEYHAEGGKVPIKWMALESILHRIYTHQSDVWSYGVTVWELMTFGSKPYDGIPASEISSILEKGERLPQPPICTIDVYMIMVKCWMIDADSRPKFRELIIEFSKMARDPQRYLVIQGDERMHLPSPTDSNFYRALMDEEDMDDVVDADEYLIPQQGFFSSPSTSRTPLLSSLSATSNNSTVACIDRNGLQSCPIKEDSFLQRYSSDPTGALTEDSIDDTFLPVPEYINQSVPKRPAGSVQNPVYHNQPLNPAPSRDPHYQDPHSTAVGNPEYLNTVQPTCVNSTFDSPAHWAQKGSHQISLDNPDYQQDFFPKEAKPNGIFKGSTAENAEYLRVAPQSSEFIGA
Sequence of EGFR WT (P00533 25-1210): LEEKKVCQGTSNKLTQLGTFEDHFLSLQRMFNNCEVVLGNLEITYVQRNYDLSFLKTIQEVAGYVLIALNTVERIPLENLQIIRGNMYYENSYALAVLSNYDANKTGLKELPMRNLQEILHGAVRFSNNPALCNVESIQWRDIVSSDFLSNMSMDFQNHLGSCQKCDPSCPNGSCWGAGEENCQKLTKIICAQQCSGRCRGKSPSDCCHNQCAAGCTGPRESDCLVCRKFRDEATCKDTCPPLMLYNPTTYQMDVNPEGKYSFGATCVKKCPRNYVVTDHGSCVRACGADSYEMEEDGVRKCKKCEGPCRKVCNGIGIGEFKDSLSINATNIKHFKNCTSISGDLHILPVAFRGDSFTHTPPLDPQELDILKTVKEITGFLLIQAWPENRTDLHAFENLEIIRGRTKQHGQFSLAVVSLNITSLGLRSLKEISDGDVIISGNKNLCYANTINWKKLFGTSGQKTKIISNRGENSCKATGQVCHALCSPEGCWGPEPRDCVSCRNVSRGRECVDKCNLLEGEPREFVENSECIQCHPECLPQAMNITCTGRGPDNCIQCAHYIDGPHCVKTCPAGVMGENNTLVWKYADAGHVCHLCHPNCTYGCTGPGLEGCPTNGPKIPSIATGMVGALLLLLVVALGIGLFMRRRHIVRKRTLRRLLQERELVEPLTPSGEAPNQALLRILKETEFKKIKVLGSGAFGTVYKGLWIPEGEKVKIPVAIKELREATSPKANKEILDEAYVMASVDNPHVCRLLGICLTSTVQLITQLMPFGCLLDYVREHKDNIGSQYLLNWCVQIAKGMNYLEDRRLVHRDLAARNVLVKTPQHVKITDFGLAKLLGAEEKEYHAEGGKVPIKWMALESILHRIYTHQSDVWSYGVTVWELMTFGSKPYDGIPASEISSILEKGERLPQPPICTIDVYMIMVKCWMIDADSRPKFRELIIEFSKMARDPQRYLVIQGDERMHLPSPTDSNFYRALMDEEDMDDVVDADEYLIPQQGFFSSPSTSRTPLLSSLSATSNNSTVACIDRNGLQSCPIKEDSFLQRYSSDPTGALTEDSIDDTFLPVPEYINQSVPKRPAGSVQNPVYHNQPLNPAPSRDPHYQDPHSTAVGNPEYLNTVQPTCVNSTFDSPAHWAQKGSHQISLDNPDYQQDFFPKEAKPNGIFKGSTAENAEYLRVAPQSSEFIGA
Sequence of EGFR Δ746-750 mutant (P00533 other isoform, or with tags, fused parts or gaps del 1-668/del 746-750 limits assumed): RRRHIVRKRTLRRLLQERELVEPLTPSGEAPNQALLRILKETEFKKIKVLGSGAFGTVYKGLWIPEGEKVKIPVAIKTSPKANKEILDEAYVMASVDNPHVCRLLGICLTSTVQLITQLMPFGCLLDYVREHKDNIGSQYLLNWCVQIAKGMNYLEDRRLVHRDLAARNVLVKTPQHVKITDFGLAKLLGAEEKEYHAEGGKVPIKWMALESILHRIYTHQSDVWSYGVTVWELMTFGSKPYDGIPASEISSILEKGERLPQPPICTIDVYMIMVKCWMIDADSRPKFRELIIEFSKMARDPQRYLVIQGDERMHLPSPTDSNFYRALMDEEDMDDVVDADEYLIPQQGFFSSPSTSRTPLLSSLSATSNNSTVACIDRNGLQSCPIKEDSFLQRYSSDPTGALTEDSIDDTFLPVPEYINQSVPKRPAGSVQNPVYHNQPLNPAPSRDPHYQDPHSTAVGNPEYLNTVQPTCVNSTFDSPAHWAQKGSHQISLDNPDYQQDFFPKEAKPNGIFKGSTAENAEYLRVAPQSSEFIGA
Sequence of EGFR L858R/T790M/C797S mutant (P00533 25-1210 T790M/C797S/L858R): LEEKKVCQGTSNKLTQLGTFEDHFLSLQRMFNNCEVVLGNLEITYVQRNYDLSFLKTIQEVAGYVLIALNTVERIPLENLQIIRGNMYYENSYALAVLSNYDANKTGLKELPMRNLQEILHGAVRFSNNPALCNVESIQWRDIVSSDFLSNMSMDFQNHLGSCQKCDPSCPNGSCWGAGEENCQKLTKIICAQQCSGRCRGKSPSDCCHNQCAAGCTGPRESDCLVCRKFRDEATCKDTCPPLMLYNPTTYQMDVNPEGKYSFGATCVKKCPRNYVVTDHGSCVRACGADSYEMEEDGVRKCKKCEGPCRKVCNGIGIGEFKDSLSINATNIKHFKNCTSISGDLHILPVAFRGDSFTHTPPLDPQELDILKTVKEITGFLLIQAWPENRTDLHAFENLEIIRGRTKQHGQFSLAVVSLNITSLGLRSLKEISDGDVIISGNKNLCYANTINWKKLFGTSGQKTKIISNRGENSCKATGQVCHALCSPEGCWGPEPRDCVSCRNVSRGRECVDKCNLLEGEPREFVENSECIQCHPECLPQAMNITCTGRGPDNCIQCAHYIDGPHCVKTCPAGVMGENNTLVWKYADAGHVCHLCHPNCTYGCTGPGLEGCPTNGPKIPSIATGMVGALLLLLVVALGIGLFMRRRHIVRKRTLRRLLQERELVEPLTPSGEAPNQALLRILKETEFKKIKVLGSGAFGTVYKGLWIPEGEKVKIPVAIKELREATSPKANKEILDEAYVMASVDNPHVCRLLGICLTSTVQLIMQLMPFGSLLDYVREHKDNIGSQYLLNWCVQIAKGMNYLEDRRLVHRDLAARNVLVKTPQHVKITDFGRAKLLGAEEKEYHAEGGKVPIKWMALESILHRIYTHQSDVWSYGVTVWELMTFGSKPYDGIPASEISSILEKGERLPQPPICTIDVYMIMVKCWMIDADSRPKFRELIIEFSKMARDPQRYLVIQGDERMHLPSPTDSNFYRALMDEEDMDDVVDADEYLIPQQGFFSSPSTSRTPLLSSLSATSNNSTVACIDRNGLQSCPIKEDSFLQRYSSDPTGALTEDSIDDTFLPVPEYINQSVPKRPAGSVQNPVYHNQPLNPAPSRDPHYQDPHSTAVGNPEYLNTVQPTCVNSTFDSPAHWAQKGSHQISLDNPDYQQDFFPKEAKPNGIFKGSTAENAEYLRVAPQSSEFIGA

Turning to `C[C@H]1CN(C)Cc2c(c(O)nn2C)/C=C/c2n[nH]c3ccc(cc23)-c2cnn(C)c2O1` [Example 148, (10S,17E)-8,10,12,14-tetramethyl-2,10,11,12,13,14-hexahydro-8H-3,5-ethenotripyrazolo[3,4-f:3′,4′-j:4″,3″-n][1,4]oxazacyclopentadecin-16-ol], the IC50 was 403 nM at EGFR (D770_N771insNPG); 35 nM against EGFR Δ746-750 mutant; 4.25 nM against EGFR L858R/T790M mutant; 2.77 nM in assay [1]; 23.6 nM in assay [2]; 372 nM against EGFR WT. The compound also gave a 50% inhibitory concentration (IC50) against EGFR L858R mutant of 42.4 nM.
For `Cc1nn(CCO)c2c1/C=C/c1n[nH]c3ccc(cc13)-c1c(C)nn(C)c1O[C@@H](C)CN(C)C2` [Example 138, 2-[(10S,17E)-6,8,10,12,16-pentamethyl-2,8,10,11,12,13-hexahydro-14H-3,5-ethenotripyrazolo[3,4-f:3′,4′-j:4″,3″-n][1,4]oxazacyclopentadecin-14-yl]ethan-1-o], the IC50 at EGFR (D770_N771insNPG) is 85.2 nM; against EGFR Δ746-750 mutant, 3.64 nM; at EGFR L858R/T790M mutant, 0.61 nM; in assay [1], 0.55 nM; in assay [2], 1.4 nM; against EGFR WT it was 23.8 nM. On EGFR L858R mutant, this compound displayed an IC50 of 3.5 nM.
Take `Cc1c2c(nn1CCC(C)O)CN(C)C[C@H](C)Oc1c(cnn1C)-c1ccc3[nH]nc(c3c1)/C=C/2` (stereo partly drawn) [Example 95, 4-[(10S,17E)-8,10,12,16-tetramethyl-2,8,10,11,12,13-hexahydro-15H-3,5-ethenotripyrazolo[3,4-f:3′,4′-j:4″,3″-n][1,4]oxazacyclopentadecin-15-yl]butan-2-ol]: the IC50 on EGFR (D770_N771insNPG) stood at 524 nM; on EGFR Δ746-750 mutant, 121 nM; at EGFR L858R/T790M mutant, 1.95 nM; in assay [1], 4.93 nM; in assay [2], 23 nM; at EGFR WT, 167 nM. On EGFR L858R mutant, this compound displayed an IC50 of 30.1 nM.
As to `C[C@H]1CN(C)Cc2nn3c(c2/C=C/c2n[nH]c4ccc(cc24)-c2cnn(C)c2O1)CN(CCS(C)(=O)=O)CC3` [Example 166, (10S,20E)-18-[2-(methanesulfonyl)ethyl]-8,10,12-trimethyl-2,8,10,11,12,13,16,17,18,19-decahydro-3,5-ethenopyrazino[1′,2′:1,5]pyrazolo [3,4-f]dipyrazolo[3,4-j:4′,3′-n][1,4]oxazacyclopentadecine], the IC50 on EGFR (D770_N771insNPG) was found to be 45.6 nM; against EGFR Δ746-750 mutant it was 15 nM; against EGFR L858R/T790M mutant, 0.72 nM; in assay [1], 0.55 nM; in assay [2] it was 8.1 nM; against EGFR WT, 99.8 nM. Inhibition against EGFR L858R mutant was half-maximal at 12.8 nM (IC50).
For the compound `CCN1Cc2c(c(C)nn2CCO)/C=C/c2n[nH]c3ccc(cc23)-c2cnn(C)c2O[C@@H](C)C1` [Example 133, v2-[(10S,17E)-12-ethyl-8,10,16-trimethyl-2,8,10,11,12,13-hexahydro-14H-3,5-ethenotripyrazolo[3,4-f:3′,4′-j:4″,3″-n][1,4]oxazacyclopentadecin-14-yl]ethan-1-ol], the IC50 is 1.62 nM at EGFR (D770_N771insNPG); 0.12 nM against EGFR Δ746-750 mutant; 0.07 nM at EGFR L858R/T790M mutant; 0.24 nM in assay [1]; 0.35 nM in assay [2]; 0.54 nM against EGFR WT. In addition, it took 0.09 nM to reach half-maximal inhibition against EGFR L858R mutant (IC50).
Consider `Cc1c2c(nn1CCN1CCCC1)CN(C)C[C@@H](C)Oc1c(cnn1C)-c1ccc3[nH]nc(c3c1)/C=C/2` [Example 121, (10R,17E)-8,10,12,16-tetramethyl-15-[2-(pyrrolidin-1-yl)ethyl]-2,10,11,12,13,15-hexahydro-8H-3,5-ethenotripyrazolo[3,4-f:3′,4′-j:4″,3″- n][1,4]oxazacyclopentadecine], for which the IC50 on EGFR (D770_N771insNPG) was 283 nM; on EGFR Δ746-750 mutant it was 40.7 nM; at EGFR L858R/T790M mutant, 6.14 nM; in assay [1], 13 nM; in assay [2] it was 41.3 nM; on EGFR WT it was 296 nM. The IC50 at EGFR L858R mutant amounted to 94.1 nM.
For the compound `CCOc1nn(CCO)c2c1/C=C/c1n[nH]c3cc(F)c(cc13)-c1c(C)nn(C)c1O[C@@H](C)CN(C(C)C)C2` [Example 239, 2-[(10S,17E)-16-ethoxy-19-fluoro-6,8,10-trimethyl-12-(propan-2-yl)-2,8,10,11,12,13-hexahydro-14H-3,5-ethenotripyrazolo[3,4-f:3′,4′-j:4″,3″-n][1,4]oxazacyclopentadecin-14-yl]ethan-1-ol], the IC50 was determined as 527 nM at EGFR (D770_N771insNPG); 18.3 nM at EGFR Δ746-750 mutant; 36.4 nM at EGFR L858R/T790M mutant; 8.44 nM in assay [1]; 9.44 nM in assay [2]; 62.1 nM at EGFR WT. At EGFR L858R mutant, this compound registered an IC50 of 30.5 nM.
On to `Cc1nn(C)c2c1/C=C/c1n[nH]c3ccc(cc13)-c1cnn(C)c1CN(C)[C@@H](C)CO2` [Example 106, (11S,17E)-8,10,11,14,16-pentamethyl-2,9,10,11,12,14-hexahydro-8H-3,5-ethenotripyrazolo[3,4-f:4′,3′-j:4″,3″-n][1,4]oxazacyclopentadecine], for which the IC50 on EGFR (D770_N771insNPG) worked out at 111 nM; against EGFR Δ746-750 mutant it was 57.6 nM; at EGFR L858R/T790M mutant it was 2.49 nM; in assay [1], 10.8 nM; in assay [2], 68.5 nM; at EGFR WT, 107 nM. This compound also registered a 50% inhibitory concentration (IC50) on EGFR L858R mutant of 34.8 nM.
On to `C[C@H]1CN(C)Cc2cnn(C)c2/C=C/c2n[nH]c3ccc(cc23)-c2cnn(C)c2O1` [Example 113, (10S,17E)-8,10,12,16-tetramethyl-2,10,11,12,13,16-hexahydro-8H-3,5-ethenotripyrazolo[4,3-f:3′,4′-j:4″,3″-n][1,4]oxazacyclopentadecine], for which the IC50 amounted to 727 nM on EGFR (D770_N771insNPG); 69.9 nM against EGFR Δ746-750 mutant; 8.66 nM on EGFR L858R/T790M mutant; 9.91 nM in assay [1]; 67.4 nM in assay [2]; 488 nM at EGFR WT. Further, the IC50 at EGFR L858R mutant was found to be 96.8 nM.
For the compound `CCc1nn(CCO)c2c1/C=C/c1n[nH]c3ccc(cc13)-c1cnn(C)c1OCCCO2` [Ex. 23, 2-[(17E)-16-ethyl-8-methyl-2,8,11,12-tetrahydro-10H,14H-3,5-etheno[1,5]dioxacyclopentadecino[10,11-c:15,14-c′:6,7-c″]tripyrazol-14-yl]ethan-1-ol], the IC50 on EGFR (D770_N771insNPG) stood at 362 nM; against EGFR Δ746-750 mutant it was 29.3 nM; against EGFR L858R/T790M mutant, 13.1 nM; in assay [1] it was 22.5 nM; in assay [2], 44.5 nM; against EGFR WT it was 290 nM. On EGFR L858R mutant, half-maximal inhibition (IC50) was put at 96.6 nM.
For `Cc1nn([C@H]2CCNC[C@@H]2O)c2c1/C=C/c1n[nH]c3ccc(cc13)-c1cnn(C)c1OCCCO2` (racemic) [Example 80, (rac)-4-[(17E)-8,16-dimethyl-2,8,11,12-tetrahydro-10H,14H-3,5-etheno[1,5]dioxacyclopentadecino[10,11-c:15,14-c′:6,7-c′]tripyrazol-14-yl]piperidin-3-ol], the IC50 was 59.1 nM on EGFR (D770_N771insNPG); 38.7 nM against EGFR Δ746-750 mutant; 4.37 nM against EGFR L858R/T790M mutant; 11.2 nM in assay [1]; 39.2 nM in assay [2]; 50.8 nM on EGFR WT. Further, the IC50 against EGFR L858R mutant was determined as 24.7 nM.
